The supplement of paper PMC10307832

Key:
Experiment in all cases: relative viability (nuclei count vs DMSO), 5 days (fraction); higher = more cells survive
[1] = test system: LCLC-103H
In short: (§1)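 Cells from lung cancer lines were seeded into 1536-well plates and, one day later, dosed by pin tool. Treatments were either a single drug or a fixed dose of an anchor drug with five library-drug doses (not always all listed) in √10 steps. After 5 days, nuclei were stained in a one-step fixation (final 0.05% Triton X-100, 1% formaldehyde, 1 ug/ml Hoechst) and counted on 4× images, and relative viability is the treated-to-vehicle nuclei ratio, as the median of duplicate plates.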

[2] = test system: NCI-H1666
In short: as §1

[3] = test system: SK-LU-1
In short: as §1

[4] = test system: NCI-H2085
In short: as §1

[5] = test system: NCI-H3122
In short: as §1

[6] = test system: HCC-366
In short: as §1

[7] = test system: EMC-BAC-2
In short: as §1

[8] = test system: LXF-289
In short: as §1

[9] = test system: HCC-44
In short: as §1

[10] = test system: HCC-827
In short: as §1

[11] = test system: NCI-H1975
In short: as §1

[12] = test system: ChaGo-K-1
In short: as §1

Compound: COc1cc(N2CCC(C(N)=O)CC2)ccc1Nc1nc(N)c(Cl)c(Nc2ccccc2S(=O)(=O)C(C)C)n1 [HG-5-88-01] + Nc1ncn([C@H]2C[C@H](O)[C@@H](CO)O2)c(=O)n1 [Decitabine] (partner 2 µM)
- relative viability ([1]; first compound 1.265 µM): 0.713
- relative viability ([1]; first compound 4 µM): 0.74
- relative viability ([2]; first compound 0.04 µM): 0.66
- relative viability ([2]; first compound 0.1265 µM): 0.743
- relative viability ([2]; first compound 0.4 µM): 0.779
- relative viability ([2]; first compound 1.265 µM): 0.622
- relative viability ([2]; first compound 4 µM): 0.566
- relative viability ([3]; first compound 0.04 µM): 0.525
- relative viability ([3]; first compound 0.1265 µM): 0.595
- relative viability ([3]; first compound 0.4 µM): 0.598
- relative viability ([3]; first compound 1.265 µM): 0.598
- relative viability ([3]; first compound 4 µM): 0.344
- relative viability ([4]; first compound 0.04 µM): 0.6
- relative viability ([4]; first compound 0.1265 µM): 0.625
- relative viability ([4]; first compound 0.4 µM): 0.582
- relative viability ([4]; first compound 1.265 µM): 0.544
- relative viability ([4]; first compound 4 µM): 0.607
- relative viability ([5]; first compound 0.04 µM): 0.365
- relative viability ([5]; first compound 0.1265 µM): 0.279
- relative viability ([5]; first compound 0.4 µM): 0.223
- relative viability ([5]; first compound 1.265 µM): 0.127
- relative viability ([5]; first compound 4 µM): 0.0935
- relative viability ([6]; first compound 0.04 µM): 0.367
- relative viability ([6]; first compound 0.1265 µM): 0.357
- relative viability ([6]; first compound 0.4 µM): 0.436
- relative viability ([6]; first compound 1.265 µM): 0.338
- relative viability ([6]; first compound 4 µM): 0.343
- relative viability ([7]; first compound 0.04 µM): 1
- relative viability ([7]; first compound 0.1265 µM): 1.07
- relative viability ([7]; first compound 0.4 µM): 0.965
- relative viability ([7]; first compound 1.265 µM): 0.874
- relative viability ([7]; first compound 4 µM): 0.802
- relative viability ([8]; first compound 0.04 µM): 0.324
- relative viability ([8]; first compound 0.1265 µM): 0.402
- relative viability ([8]; first compound 0.4 µM): 0.464
- relative viability ([8]; first compound 1.265 µM): 0.423
- relative viability ([8]; first compound 4 µM): 0.427
- relative viability ([9]; first compound 0.04 µM): 0.936
- relative viability ([9]; first compound 0.1265 µM): 0.996
- relative viability ([9]; first compound 0.4 µM): 0.913
- relative viability ([9]; first compound 1.265 µM): 0.996
- relative viability ([9]; first compound 4 µM): 0.817
- relative viability ([10]; first compound 0.04 µM): 0.292
- relative viability ([10]; first compound 0.1265 µM): 0.304
- relative viability ([10]; first compound 0.4 µM): 0.354
- relative viability ([10]; first compound 1.265 µM): 0.19
- relative viability ([10]; first compound 4 µM): 0.209
- relative viability ([11]; first compound 0.04 µM): 0.409
- relative viability ([11]; first compound 0.1265 µM): 0.474
- relative viability ([11]; first compound 0.4 µM): 0.382
- relative viability ([11]; first compound 1.265 µM): 0.403
- relative viability ([11]; first compound 4 µM): 0.273
- relative viability ([12]; first compound 0.04 µM): 0.524
- relative viability ([12]; first compound 0.1265 µM): 0.515
- relative viability ([12]; first compound 0.4 µM): 0.51
- relative viability ([12]; first compound 1.265 µM): 0.542
- relative viability ([12]; first compound 4 µM): 0.552
